Source: patent EP4813980A1, “EP300/CBP REGULATOR, AND PREPARATION METHOD THEREFOR AND USE THEREOF” (Miracure Biotechnology Limited, priority 2023, dated 2025)

What was measured:
Test in all cases: Cell growth inhibition, CellTiter-Glo, 72 h
Format in all cases: cell-based
MM1S cells = settings: Homo sapiens, MM1.S, 72 h culture, mean of N=2
Experimental: (§1) 22RV1, vCap, MM1S and OPM-2 cells were cultured in RPMI-1640 medium (10% fetal bovine serum and 100 units of penicillin/streptomycin dual-antibody per mL were added to RPMI-1640) in a cell incubator at 37°C with 5% CO2, respectively. Cells in logarithmic growth phase were seeded into 96-well cell culture plates at 5×10^3 cells/100 µL/well and cultured overnight. Active compounds dissolved in DMSO at different concentrations were added with a final concentration of 0.5% DMSO. 1% Tween 20 was used as positive control and 0.5% DMSO was used as negative control. After 72 h of culture, an equal volume of CellTiter-Glo was added to each well, mixed by shaking for 2 min, and left standing at room temperature for 10 min. […] signal values were read with a microplate reader. Data were analyzed and graphs were generated using Prism 7.0. The values shown are mean ± SEM (N=2). […] The formula for inhibition rate is as follows: % Inhibition = (Icompound−IZPE)/(IHPE−IZPE) × 100 [formula]
(§2) The X-axis is compound concentration (nM), and the Y-axis is % Inhibition.

vCap cells = settings: Homo sapiens, 72 h culture, mean of N=2
Experimental: as §1, §2

OPM-2 cells = settings: Homo sapiens, 72 h culture, mean of N=2
Experimental: as §1, §2

22RV1 cells = settings: Homo sapiens, 72 h culture, mean of N=2
Experimental: as §1, §2

Structure (SMILES)	IC50 (MM1S cells) [nM]	IC50 (vCap cells) [nM]	IC50 (OPM-2 cells) [nM]	IC50 (22RV1 cells) [nM]
CC(=O)N1Cc2cc(C3CCN(CC4CCN(c5ccc6c(c5)n(C)c(=O)n6C5CCC(=O)NC5=O)CC4)CC3)cc(N3CCCc4cc(-c5cnn(C)c5)c(C(F)F)cc43)c2C1 (stereo not shown) [Compound 2068]	0.07	0.07	0.04	0.06
CC(=O)N1Cc2cc(C3CCN(CC4CCN(c5ccc6c(c5)CN(C5CCC(=O)NC5=O)C6=O)CC4)CC3)cc(N3CCCc4cc(-c5cnn(C)c5)c(C(F)F)cc43)c2C1 (stereo not shown) [Compound 2058]	0.3	0.29	0.23	0.31
CNC(=O)N1CCc2c(c(N3CCCc4cc(-c5cnn(C)c5)c(C(F)F)cc43)nn2C2CCOCC2)C1 [GNE-781]	104	2150	8	4240
CNC(=O)N1CCc2c(c(N3CCCc4cc(-c5cnn(C)c5)c(C(F)F)cc43)nn2[C@H]2CC[C@H](N3C(=O)C=CC3=O)CC2)C1 [Compound 1383, 3-(7-(difluoromethyl)-6-(1-methyl-1H-pyrazol-4-yl)-3,4-dihydroquinolin-1(2H)-yl)-1-((1r,4r)-4-(2,5-dioxo-2,5-dihydro-1H-pyrrol-1-yl)cyclohexyl)-N-methyl-1,4,6,7-tetrahydro-5H-pyrazolo[4,3-c]pyridine-5-carboxamide]	122	108	63	496
C=CS(=O)(=O)N[C@H]1CC[C@@H](c2cc3c(c(N4CCCc5cc(-c6cnn(C)c6)c(C(F)F)cc54)c2)CN(C(=O)NC)CC3)CC1 [Compound 1366, 8-(7-(difluoromethyl)-6-(1-methyl-1H-pyrazol-4-yl)-3,4-dihydroquinolin-1(2H)-yl)-N-methyl-6-((1s,4s)-4-(vinylsulfonamido)cyclohexyl)-3,4-dihydroisoquinoline-2(1H)-carboxamide]	24	28	5	131
CC(=O)N1Cc2cc(C3CCN(CC4CCN(c5ccc6c(c5)C(=O)N(C5CCC(=O)NC5=O)C6=O)CC4)CC3)cc(N3CCCc4cc(-c5cnn(C)c5)c(C(F)F)cc43)c2C1 (stereo not shown) [Compound 2085]	2	2	2	4
C=CS(=O)(=O)N1CCC(c2cc3c(c(N4CCCc5cc(-c6cnn(C)c6)c(C(F)F)cc54)c2)CN(C(=O)NC)C3)CC1 [Compound 1391, 4-(7-(difluoromethyl)-6-(1-methyl-1H-pyrazol-4-yl)-3,4-dihydroquinolin-1(2H)-yl)-N-methyl-6-(1-(vinylsulfonyl)piperidin-4-yl)isoindoline-2-carboxamide]	117	191	33	438
CC(=O)N1Cc2cc([C@H]3CC[C@@H](NC(=O)CCl)CC3)cc(N3CCCc4cc(-c5cnn(C)c5)c(C(F)F)cc43)c2C1 [Compound 1361]	2	–	1	106
CC(=O)N1Cc2cc([C@H]3CC[C@@H](CN4Cc5cc6c(cc5C4)C(=O)N(C4CCC(=O)NC4=O)C6=O)CC3)cc(N3CCCc4cc(-c5cnn(C)c5)c(C(F)F)cc43)c2C1 (relative stereo) [Compound 2082, 6-(((1s,4s)-4-(2-acetyl-7-(7-(difluoromethyl)-6-(1-methyl-1H-pyrazol-4-yl)-3,4-dihydroquinolin-1(2H)-yl)isoindolin-5-yl)cyclohexyl)methyl)-2-(2,6-dioxopiperidin-3-yl)-6,7-dihydropyrrolo[3,4-f]isoindole-1,3(2H,5H)-dione]	25	13	4	47
CNC(=O)N1CCc2cc(C3CCN(C(=O)CCCCCCCCNc4ccc5c(c4)n(C)c(=O)n5C4CCC(=O)NC4=O)CC3)cc(N3CCCc4cc(-c5cnn(C)c5)c(C(F)F)cc43)c2C1 (stereo not shown) [Compound 2018]	0.1	< 0.005	0.05	0.01
CC(=O)N1Cc2cc(C3CCN(c4cccc5c4CN(C4CCC(=O)NC4=O)C5=O)CC3)cc(N3CCCc4cc(-c5cnn(C)c5)c(C(F)F)cc43)c2C1 (stereo not shown) [Compound 2080, 3-[4-(4-{2-acetyl-7-[7-(difluoromethyl)-6-(1-methylpyrazol-4-yl)-3,4-dihydro-2H-quinolin-1-yl]-1,3-dihydroisoindol-5-yl}piperidin-1-yl)-1-oxo-3H-isoindol-2-yl]piperidine-2,6-dione]	1.16	1.17	0.52	3.97
C=CS(=O)(=O)N1CCC(n2nc(N3CCCc4cc(-c5cnn(C)c5)c(C5CC5)cc43)c3c2CCN(C(=O)NC)C3)CC1 [Compound 1378, 3-[7-cyclopropyl-6-(1-methylpyrazol-4-yl)-3,4-dihydro-2H-quinolin-1-yl]-1-(1-(vinylsulfonyl)piperidin-4-yl)-N-methyl-4H,6H,7H-pyrazolo[4,3-c]pyridine-5-carboxamide]	3	3	2	10
C=CS(=O)(=O)N1CCC(n2nc(N3CCCc4cc(-c5cnn(C)c5)c(C(F)F)cc43)c3c2CCN(C(=O)NC)C3)CC1 [Compound 1369, 3-(7-(difluoromethyl)-6-(1-methyl-1H-pyrazol-4-yl)-3,4-dihydroquinolin-1(2H)-yl)-N-methyl-1-(1-(vinylsulfonyl)piperidin-4-yl)-1,4,6,7-tetrahydro-5H-pyrazolo[4,3-c]pyridine-5-carboxamide]	1	1	0.4	4
CC(=O)N1Cc2cc([C@H]3CC[C@@H](NC(=O)/C=C/CN(C)C)CC3)cc(N3CCCc4cc(-c5cnn(C)c5)c(C(F)F)cc43)c2C1 [Compound 1358]	598	–	39	4940
CC(=O)N1Cc2cc([C@H]3CC[C@H](NC(=O)/C=C/CN(C)C)CC3)cc(N3CCCc4cc(-c5cnn(C)c5)c(C(F)F)cc43)c2C1 [Compound 1356]	464	–	53	4270
C=CS(=O)(=O)N[C@H]1CC[C@@H](n2nc(N3CCCc4cc(-c5cnn(C)c5)c(C(F)F)cc43)c3c2CCN(C(C)=O)C3)CC1 [Compound 1388, N-((1s,4s)-4-(5-acetyl-3-(7-(difluoromethyl)-6-(1-methyl-1H-pyrazol-4-yl)-3,4-dihydroquinolin-1(2H)-yl)-4,5,6,7-tetrahydro-1H-pyrazolo[4,3-c]pyridin-1-yl)cyclohexyl)ethenesulfonamide]	3	2	1	15
C=CS(=O)(=O)N1CCC(n2nc(N3CCCc4cc(-c5cnn(C)c5)c(C#N)cc43)c3c2CCN(C(=O)NC)C3)CC1 [Compound 1379, 3-[7-cyano-6-(1-methylpyrazol-4-yl)-3,4-dihydro-2H-quinolin-1-yl]-1-[1-(vinylsulfonyl)piperidin-4-yl]-N-methyl-4H,6H,7H-pyrazolo[4,3-c]pyridine-5-carboxamide]	5	8	5	28
C=CS(=O)(=O)N1CCC(n2c([C@@H]3CCCC(=O)N3c3ccc(F)c(F)c3)nc3cc(-c4c(C)noc4C)ccc32)CC1 [Compound 1373, (S)-1-(3,4-difluorophenyl)-6-(5-(3,5-dimethylisoxazol-4-yl)-1-(1-(vinylsulfonyl)piperidin-4-yl)-1H-benzo[d]imidazol-2-yl)piperidin-2-one]	44	51	12	208
CNC(=O)N1CCc2c(c(N3CCCc4cc(-c5cnn(C)c5)c(C(F)F)cc43)nn2C2CCN(C(=O)CCl)CC2)C1 [Compound 1377, 1-(1-(2-chloroacetyl)piperidin-4-yl)-3-(7-(difluoromethyl)-6-(1-methyl-1H-pyrazol-4-yl)-3,4-dihydroquinolin-1(2H)-yl)-N-methyl-1,4,6,7-tetrahydro-5H-pyrazolo[4,3-c]pyridine-5-carboxamide]	0.3	0.5	0.2	4
CC(=O)N1Cc2cc([C@H]3CC[C@H](NC(=O)CCl)CC3)cc(N3CCCc4cc(-c5cnn(C)c5)c(C(F)F)cc43)c2C1 [Compound 1362]	3	6	2	51
CC(=O)N1Cc2cc([C@H]3CC[C@H](CN4Cc5cc6c(cc5C4)C(=O)N(C4CCC(=O)NC4=O)C6=O)CC3)cc(N3CCCc4cc(-c5cnn(C)c5)c(C(F)F)cc43)c2C1 (relative stereo) [Compound 2083, 6-(((1r,4r)-4-(2-acetyl-7-(7-(difluoromethyl)-6-(1-methyl-1H-pyrazol-4-yl)-3,4-dihydroquinolin-1(2H)-yl)isoindolin-5-yl)cyclohexyl)methyl)-2-(2,6-dioxopiperidin-3-yl)-6,7-dihydropyrrolo[3,4-f]isoindole-1,3(2H,5H)-dione]	35	58	13	> 10000
CC#CC(=O)N1CCC(c2cc3c(c(N4CCCc5cc(-c6cnn(C)c6)c(C(F)F)cc54)c2)CN(C(C)=O)C3)CC1 [Compound 1359]	–	–	15	545
C=CS(=O)(=O)N1CCC(c2cc3c(c(N4CCCc5cc(-c6cnn(C)c6)c(C(F)F)cc54)c2)CN(C(C)=O)CC3)CC1 [Compound 1368]	–	–	168	1390
